The text below walks through data of US10995091B2 (Proximagen, LLC, priority 2010, dated 2021).

Where a name gives a salt, the structure may show the parent alone. Bounds are passed on as bounds.

This test has as its target T1, Human CXCR4 transfected HEK293 cells (Homo sapiens, UniProt P61073).
T1 construct: expressed in transfected cells; host or cells: HEK293
The test is described as follows: CXCR4 functional calcium assay (calcium flux FLIPR, antagonism of SDF1 response). The format is cell-based. The settings on record: CXCR4 functional activity, antagonism of SDF1 (EC50 concentration), read-out: CXCR4 fKi. As to the method:
The functional activity of test compounds was routinely tested by measuring the ability of compounds to antagonize CXCR4 activity in a dose dependent manner, using a calcium flux Fluorescent Imaging Plate Reader FLIPR assay.
Human CXCR4 transfected HEK293 cells were cultured in Dulbecco's modified Eagles medium containing 4.5 g/L glucose, L-glutamine, pyruvate, 50 µg/mL Geneticin and 250 µg/mL hygromycin B and maintained at 37° C. in a humidified, 5% CO2 controlled atmosphere. Subcultivations were performed every 2-3 d.
At confluence the cells were lifted using Ca^2+ and Mg^2+ free PBS/0.02% (w/v) EDTA, spun at 1000 rpm for 3 min and resuspended at 2.5×10^5 cells/mL. Cells were plated into a 384 well, poly-d-lysine coated, black with clear bottomed plate (Becton Dickinson) at 7500 cells/well. The plates were incubated overnight at 37° C. under 5% CO2. On the day of the experiment the cells were washed with incubation Buffer (HBSS containing 2.5 mM probenecid, 0.1% w/v BSA and 10 mM HEPES, pH 7.4 at 37° C.). After washing, the cells were loaded with Fluo-4 AM dye (Molecular probes) at 2 µM containing 0.48 µg/mL pluronic acid for 60 min at 37° C. under 5% CO2. After thorough washing with incubation buffer the cells were preincubated for 10 min at 37° C. before use.
A combined agonist/antagonist protocol was used to measure changes in intracellular calcium concentration. Compound (antagonist) was added to the cell plate using a Fluorometric Imaging Plate Reader (FLIPR) (Molecular Devices, Sunnyvale, Calif., USA). Basal fluorescence was recorded every second for 10 seconds prior to compound addition (10 μl) and fluorescence recorded every second for 1 min then every 6 seconds for a further 1 min. SDF1[…] (EC50 concentration) was then added using the FLIPR and fluorescence recorded as described above. Curve-fitting and parameter estimation were carried out using GraphPad Prism 4.0 (GraphPad Software Inc., San Diego, Calif.).

T1 sequence (P61073 whole entry): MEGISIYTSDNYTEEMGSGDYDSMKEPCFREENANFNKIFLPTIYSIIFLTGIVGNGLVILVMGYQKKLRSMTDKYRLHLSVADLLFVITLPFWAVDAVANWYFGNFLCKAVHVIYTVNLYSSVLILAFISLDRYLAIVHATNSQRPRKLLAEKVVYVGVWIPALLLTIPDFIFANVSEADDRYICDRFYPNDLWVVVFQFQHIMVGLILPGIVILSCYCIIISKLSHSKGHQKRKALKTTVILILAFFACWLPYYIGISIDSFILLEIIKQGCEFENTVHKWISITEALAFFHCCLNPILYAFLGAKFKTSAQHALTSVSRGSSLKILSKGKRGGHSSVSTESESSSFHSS

In the case of `O=C(NCC1CC1)c1cccc(N2CCCN(C3CCN(C4CCOC4)CC3)CC2)n1` (centres unmarked) [Example 128, N-(Cyclopropylmethyl)-6-{4-[1-(oxolan-3-yl)piperidin-4-yl]-1,4-diazepan-1-yl}pyridine-2-carboxamide], the Ki lay within 100 to 500 nM. Turning to `CCc1cnc(-c2cccc(N3CCCN(C4CCN([C@@H](C)C(F)(F)F)CC4)CC3)n2)[nH]1` [Example 115, 1-[6-(4-Ethyl-1H-imidazol-2-yl)pyridine-2-yl]-4-{1-[(2S)-1,1,1-trifluoropropan-2-yl]piperidin-4-yl}-1,4-diazepane], the Ki is 100 to 500 nM. Consider `[2H]C1([2H])CCN(c2cccc(C(=O)Nc3ccncc3)n2)CCN1C1CCN(Cc2ccccc2Cl)CC1` [Example 204, 6-(4-{1-[(2-Chlorophenyl)methyl]piperidin-4-yl}-5,5-dihydrogenio-1,4-diazepan-1-yl)-N-(pyridin-4-yl)pyridine-2-carboxamide], for which the Ki was less than 20 nM.

`Cc1nc(-c2cccc(NCCNC[C@@H]3CCN(C4CCCC4)C3)n2)[nH]c1C1CC1` [Example 247, {[(3S)-1-Cyclopentylpyrrolidin-3-yl]methyl}(2-{[6-(5-cyclopropyl-4-methyl-1H-imidazol-2-yl)pyridin-2-yl]amino}ethyl)amine]: the Ki lay within 20 to 100 nM. On to `CCc1nc(-c2cccc(N3CCCN(C4CCN(C(C)C)CC4)CC3)n2)[nH]c1CC` [Example 120, 1-[6-(4,5-Diethyl-1H-imidazol-2-yl)pyridine-2-yl]-4-[1-(propan-2-yl)piperidin-4-yl]-1,4-diazepane], for which the Ki lay in the range of 20 to 100 nM. `CCNC(=O)c1cccc(N2CCCN(C3CCN(C(C)C)CC3)CC2)n1` [Example 4, N-Ethyl-6-{4-[1-(propan-2-yl)piperidin-4-yl]-1,4-diazepan-1-yl}pyridine-2-carboxamide]: the Ki is 100 to 500 nM. Turning to `c1cc(-c2ncc(C3CC3)[nH]2)nc(N2CCCN(C3CCC(N4CCCC4)CC3)CC2)c1` (centres unmarked) [Example 255, 1-[6-(4-Cyclopropyl-1H-imidazol-2-yl)pyridin-2-yl]-4-[4-(pyrrolidin-1-yl)cyclohexyl]-1,4-diazepane], the Ki was 100 to 500 nM. Turning to `CCc1cnc(-c2cccc(NCCNC3CCN([C@H](C)CC)CC3)n2)[nH]1` [Example 235, 1-[(2R)-Butan-2-yl]-N-(2-{[6-(4-ethyl-1H-imidazol-2-yl)pyridin-2-yl]amino}ethyl)piperidin-4-amine], the Ki lay in the range of 100 to 500 nM. On to `CC(C)N1CCC(N2CCCN(c3cccc(C(=O)N[C@@H]4CCOC4)n3)CC2)CC1` [Example 19, N-[(3R)-Oxolan-3-yl]-6-{4-[1-(propan-2-yl)piperidin-4-yl]-1,4-diazepan-1-yl}pyridine-2-carboxamide], for which the Ki fell in the range of 100 to 500 nM. For the molecule `CC(C)N1CCC(N2CCCN(c3cccc(-c4noc(C5CC5)n4)n3)CC2)CC1` [Example 161, 1-[6-(5-Cyclopropyl-1,2,4-oxadiazol-3-yl)pyridine-2-yl]-4-[1-(propan-2-yl)piperidin-4-yl]-1,4-diazepane], the Ki lay within 100 to 500 nM.

As for `CC(C)N1CCC(N2CCCN(c3cccc(-c4nc5ccc(C(F)(F)F)cc5[nH]4)n3)CC2)CC1` [Example 144, 2-(6-{4-[1-(Propan-2-yl)piperidin-4-yl]-1,4-diazepan-1-yl}pyridine-2-yl)-6-(trifluoromethyl)-1H-1,3-benzodiazole], the Ki was 100 to 500 nM. On to `CC(C)N1CCCC(N2CCC(Oc3cccc(C(=O)Nc4ccncc4)n3)CC2)CC1` (centres unmarked) [Example 221, 6-({1-[1-(Propan-2-yl)azepan-4-yl]piperidin-4-yl}oxy)-N-(pyridin-4-yl)pyridine-2-carboxamide], for which the Ki lay within 100 to 500 nM. For `CC(C)N1CCC(N2CC3CCC2CN(c2cccc(C(=O)NCC4CC4)n2)C3)CC1` (centres unmarked) [Example 199, N-(Cyclopropylmethyl)-6-{6-[1-(propan-2-yl)piperidin-4-yl]-3,6-diazabicyclo[3.2.2]nonan-3-yl}pyridine-2-carboxamide trihydrochloride], the Ki was 500 to 1000 nM.

In the case of `CC(C)N1CCC(N2CCCN(c3cccc(C(=O)NCc4cncs4)n3)CC2)CC1` [Example 43, 6-{4-[1-(Propan-2-yl)piperidin-4-yl]-1,4-diazepan-1-yl}-N-(1,3-thiazol-5-ylmethyl)pyridine-2-carboxamide], the Ki is 20 to 100 nM. As to `CC(C)N1CCC(N2CCCN(c3cccc(C(=O)NC[C@H]4CCCO4)n3)CC2)CC1` [Example 20, N-[(2R)-Oxolan-2-ylmethyl]-6-{4-[1-(propan-2-yl)piperidin-4-yl]-1,4-diazepan-1-yl}pyridine-2-carboxamide], the Ki fell in the range of 100 to 500 nM. Regarding `CC(C)N1CCC(N2CCCN(c3cccc(-c4ncc(-c5ccccc5)[nH]4)n3)CC2)CC1` [Example 114, 1-[6-(4-Phenyl-1H-imidazol-2-yl)pyridine-2-yl]-4-[1-(propan-2-yl)piperidin-4-yl]-1,4-diazepane], the Ki lay in the range of 100 to 500 nM.

Consider `Cc1cc2nc(-c3cccc(N4CCCN(C5CCN(C(C)C)CC5)CC4)n3)[nH]c2cc1C` [Example 146, 5,6-Dimethyl-2-(6-{4-[1-(propan-2-yl)piperidin-4-yl]-1,4-diazepan-1-yl}pyridine-2-yl)-1H-1,3-benzodiazole], for which the Ki lay in the range of 100 to 500 nM. As to `CC(C)N1CCC(N2CCCN(c3cccc(-c4cc5cccnc5[nH]4)n3)CC2)CC1` [Example 99, 1-[1-(Propan-2-yl)piperidin-4-yl]-4-(6-{1H-pyrrolo[2,3-b]pyridine-2-yl}pyridine-2-yl)-1,4-diazepane], the Ki is 20 to 100 nM. Take `Cc1ccccc1CN1CCC(N2CCCN(c3cccc(C(=O)NCC4CC4)n3)CC2)CC1` [Example 131, N-(Cyclopropylmethyl)-6-(4-{1-[(2-methylphenyl)methyl]piperidin-4-yl}-1,4-diazepan-1-yl)pyridine-2-carboxamide]: the Ki was 100 to 500 nM. For the molecule `O=C(Nc1ccncc1)c1cccc(N2CC3CCC(C2)N(C2CCN(Cc4ccccc4Cl)CC2)C3)n1` (centres unmarked) [Example 208, 6-(6-{1-[(2-Chlorophenyl)methyl]piperidin-4-yl}-3,6-diazabicyclo[3.2.2]nonan-3-yl)-N-(pyridin-4-yl)pyridine-2-carboxamide], the Ki is 100 to 500 nM.

Consider `Cc1nc(-c2cccc(N3CC[C@@H](NC[C@H]4CCN(C5CCCC5)C4)C3)n2)[nH]c1C1CC1` [Example 225, (3R)—N-{[(3R)-1-Cyclopentylpyrrolidin-3-yl]methyl}-1-[6-(4-cyclopropyl-5-methyl-1H-imidazol-2-yl)pyridin-2-yl]pyrrolidin-3-amine], for which the Ki was less than 20 nM. Take `CC(C)N1CCC(N2CCCN(c3cccc(-c4nc(C5CC5)no4)n3)CC2)CC1` [Example 169, 1-[6-(3-Cyclopropyl-1,2,4-oxadiazol-5-yl)pyridin-2-yl]-4-[1-(propan-2-yl)piperidin-4-yl]-1,4-diazepane]: the Ki was in the range of 500 to 1000 nM. As for `CC(C)c1nc(-c2cccc(N3CCCN(C4CCN(C(C)C)CC4)CC3)n2)no1` [Example 158, 1-{6-[5-(Propan-2-yl)-1,2,4-oxadiazol-3-yl]pyridine-2-yl}-4-[1-(propan-2-yl)piperidin-4-yl]-1,4-diazepane], the Ki lay within 500 to 1000 nM. `[2H]C1([2H])CCN(c2cccc(C(=O)Nc3ccncc3)n2)CCN1C1CCN(C(C)C)CC1` [Example 186, 6-{5,5-Dihydrogenio-4-[1-(propan-2-yl)piperidin-4-yl]-1,4-diazepan-1-yl}-N-(pyridin-4-yl)pyridine-2-carboxamide]: the Ki was less than 20 nM. The same measure for `CC(C)N1CCC(N2CCCN(c3cccc(C(=O)N[C@H]4CCOC4)n3)CC2)CC1` [Example 18, N-[(3S)-Oxolan-3-yl]-6-{4-[1-(propan-2-yl)piperidin-4-yl]-1,4-diazepan-1-yl}pyridine-2-carboxamide]: 100 to 500 nM. Turning to `c1cc(NCCNCCCNC2CCCC2)nc(-c2ncc(C3CC3)[nH]2)c1` [Example 237, N-(2-{[3-(Cyclopentylamino)propyl]amino}ethyl)-6-(5-cyclopropyl-1H-imidazol-2-yl)pyridin-2-amine], the Ki was in the range of 100 to 500 nM. As for `CC(C)N1CCC(N2CCCN(c3cccc(-c4cc5cnccc5[nH]4)n3)CC2)CC1` [Example 97, 1-[1-(Propan-2-yl)piperidin-4-yl]-4-(6-{1H-pyrrolo[3,2-c]pyridine-2-yl}pyridine-2-yl)-1,4-diazepane], the Ki is 100 to 500 nM.

`CCc1[nH]c(-c2cccc(N3CCCN(C4CCN(C(C)C)CC4)CC3)n2)nc1C` [Example 119, 1-[6-(5-Ethyl-4-methyl-1H-imidazol-2-yl)pyridine-2-yl]-4-[1-(propan-2-yl)piperidin-4-yl]-1,4-diazepane]: the Ki was less than 20 nM. As to `CC(CF)N1CCC(N2CCCN(c3cccc(C(=O)NCC4CC4)n3)CC2)CC1` (centres unmarked) [Example 67, N-(Cyclopropylmethyl)-6-{4-[1-(1-fluoropropan-2-yl)piperidin-4-yl]-1,4-diazepan-1-yl}pyridine-2-carboxamide], the Ki was 500 to 1000 nM.
